≈ marks a conversion by molar mass, not a printed value.
Columns and labels:
Assay in all cases: ≥ marks a high value that may be exact or a test limit, other limits are often not marked, values filed in µg/mL are converted to µM
[1] = system: Batrachochytrium dendrobatidis JEL-197
[2] = system: Candida albicans ATCC 90028
[3] = system: Escherichia coli ATCC 25922
[4] = system: Staphylococcus aureus NCTC 8325
[5] = system: Candida albicans NCPF 1467
[6] = system: Escherichia coli NCTC 10418
[7] = system: Staphylococcus aureus NCTC 10788
[8] = system: Escherichia coli ATCC 25726
[9] = system: Staphylococcus aureus ATCC 25923
[10] = system: Bacillus subtilis 168
[11] = system: Escherichia coli B
[12] = system: Pseudomonas aeruginosa
[13] = system: Staphylococcus aureus
[14] = system: Candida albicans ATCC 10231
[15] = system: Cryptococcus neoformans ATCC 32264

SMILES: CC[C@H](C)[C@H](NC(=O)[C@@H]1CCCN1C(=O)[C@H](CC(C)C)NC(=O)[C@@H](N)Cc1ccccc1)C(=O)N[C@@H](CC(C)C)C(=O)N[C@@H](C)C(=O)N[C@@H](CO)C(=O)N[C@@H](CC(C)C)C(=O)N[C@@H](C)C(=O)N[C@@H](C)C(=O)N[C@@H](CCCCN)C(=O)N[C@@H](CC(C)C)C(=O)NCC(=O)N1CCC[C@H]1C(=O)N[C@@H](CCCCN)C(=O)N[C@@H](CC(C)C)C(=O)N[C@@H](Cc1ccccc1)C(=O)N[C@H]1CSSC[C@@H](C(=O)O)NC(=O)[C@H](CCCCN)NC(=O)[C@H](CCCCN)NC(=O)[C@H]([C@@H](C)O)NC(=O)[C@H](C(C)C)NC(=O)[C@H](CC(C)C)NC1=O [FLPILASLAAKLGPKLFCLVTKKC]
- MIC [1]: 6.25 µM (≈ 16.1 µg/mL)
- MIC [2]: 16 µM (≈ 41.2 µg/mL)
- MIC [3]: 16 µM (≈ 41.2 µg/mL)
- MIC [4]: 4 µM (≈ 10.3 µg/mL)

SMILES: CC[C@H](C)[C@H](NC(=O)CNC(=O)[C@H](CO)NC(=O)[C@H](C)NC(=O)[C@@H](NC(=O)[C@H](Cc1cnc[nH]1)NC(=O)[C@@H]1CCCN1C(=O)[C@H](CC(C)C)NC(=O)[C@H](CC(C)C)NC(=O)[C@H](CO)NC(=O)[C@H](CC(C)C)NC(=O)[C@@H](N)Cc1ccccc1)[C@@H](C)CC)C(=O)N[C@@H](C)C(=O)N[C@@H](CO)C(=O)N[C@@H](CC(C)C)C(=O)N[C@H](C(=O)N[C@@H](CO)C(=O)N[C@@H](CCCCN)C(=O)N[C@@H](Cc1ccccc1)C(N)=O)C(C)C [FLSLLPHIASGIASLVSKF]
- MIC [5]: 15 µM (≈ 30 µg/mL)
- MIC [6]: ≥ 200 µM
- MIC [7]: 5 µM (≈ 10 µg/mL)

SMILES: CC[C@H](C)[C@H](NC(=O)CN)C(=O)N[C@@H](CC(C)C)C(=O)N[C@@H](CO)C(=O)N[C@@H](CO)C(=O)N[C@@H](Cc1ccccc1)C(=O)N[C@@H](CCCCN)C(=O)N[C@@H](CC(=O)O)C(=O)N[C@H](C(=O)N[C@@H](C)C(=O)N[C@@H](CCCCN)C(=O)NCC(=O)N[C@H](C(=O)N[C@@H](C)C(=O)N[C@@H](CCCCN)C(=O)N[C@@H](CC(N)=O)C(=O)N[C@H](C(=O)N[C@@H](C)C(=O)N[C@@H](C)C(=O)N[C@@H](CCC(N)=O)C(=O)N[C@@H](CC(C)C)C(=O)N[C@@H](CC(C)C)C(=O)N[C@@H](CC(=O)O)C(=O)N[C@@H](CCCCN)C(=O)N[C@@H](CC(C)C)C(=O)N[C@@H](CCCCN)C(=O)N[C@H]1CSSC[C@@H](C(=O)O)NC(=O)CNC(=O)[C@H]([C@@H](C)O)NC(=O)[C@H]([C@@H](C)CC)NC(=O)[C@H](CCCCN)NC1=O)C(C)C)C(C)C)C(C)C [GILSSFKDVAKGVAKNVAAQLLDKLKCKITGC]
- MIC [1]: ≥ 50 µM
- MIC [8]: 10 µM (≈ 33.2 µg/mL)
- MIC [9]: 20 µM (≈ 66.4 µg/mL)

SMILES: CC[C@H](C)[C@H](NC(=O)[C@H](CCCCN)NC(=O)[C@H](CCCCN)NC(=O)[C@H](CC(C)C)NC(=O)[C@H](CC(C)C)NC(=O)[C@H](CO)NC(=O)[C@H](CCSC)NC(=O)[C@H](Cc1c[nH]c2ccccc12)NC(=O)[C@H](CCCCN)NC(=O)CN)C(=O)N[C@@H](CC(C)C)C(=O)N[C@@H](CCCCN)C(N)=O [GKWMSLLKKILK]
- MIC [10]: 1.2 µM (≈ 1.73 µg/mL)
- MIC [11]: 2.7 µM (≈ 3.9 µg/mL)
- MIC [12]: 13.8 µM (≈ 19.9 µg/mL)
- MIC [13]: 6.3 µM (≈ 9.1 µg/mL)

SMILES: NC(=O)CC[C@H](NC(=O)[C@H](Cc1c[nH]c2ccccc12)NC(=O)[C@H](CCCN=C(N)N)NC(=O)[C@H](CCCN=C(N)N)NC(=O)[C@H](Cc1c[nH]c2ccccc12)NC(=O)[C@H](Cc1c[nH]c2ccccc12)NC(=O)[C@H](CCCN=C(N)N)NC(=O)[C@@H](N)Cc1c[nH]c2ccccc12)C(=O)N[C@@H](CCCN=C(N)N)C(N)=O [WRWWRRWQR]
- MIC [14]: 50 µM (≈ 75.7 µg/mL)
- MIC [15]: 25 µM (≈ 37.9 µg/mL)

Reference: DBAASP
